In patent publication US20090298903A1, “USE OF TETRAMIC ACID DERIVATIVES FOR INSECT CONTROL” (priority 2006, published 2009):

Experiments:
Format in all cases: in vivo
Empoasca biguttula = experiment: Example 12: cotton against Empoasca biguttula; settings: for Efficacy (% H + T) 3 d: 3 d after second treatment, Henderson and Tilton, Imidacloprid (SL 100) 30, (I-4) (240 SC + 0.2% rapeseed oil methyl ester) 24, Buprofezin (WP50) 50 g a.s./ha; for Efficacy (% H + T) 7 d: 7 d after second treatment; for Efficacy (% H + T) 7 d / Efficacy (% H + T) 14 d / Efficacy (% H + T) 21 d: Imidacloprid 30, (I-4) 24, Buprofezin 50 g a.s./ha; for Efficacy (% H + T) 14 d: 14 d after second treatment; for Efficacy (% H + T) 21 d: 21 d after second treatment
Experimental: Plots 10 m^2 in size which are planted with cotton are treated, in three replications, against Empoasca biguttula. The application is carried out with a knapsack sprayer operated with pressurized air. Here, the active substance Example (I-4) (240 SC), in a tank mix with 0.2% a.s. rapeseed oil methyl ester (500 EW), is tested against the commercial standards Imidacloprid (SL 100) and Buprofezin (WP50) at the specified application rates. Two applications are carried out at an interval of 7 days. The water application rate is 750 l/ha.
The test is evaluated 3, 7, 14 and 21 days after the second treatment by counting the live animals. Thereafter, the efficacy is calculated in percent, using the formula of Henderson and Tilton.

Thrips palmi [1] = experiment: Example 4: aubergines against Thrips palmi; settings: nymphs on leaves, (I-4) (240 SC + 0.2% rapeseed oil methyl ester) 0.0096 % a.s.; for Efficacy (% Abbott) 7 d after treatm. 3 / Efficacy (% Abbott) 14 d after treatm. 3 / Efficacy (% Abbott) 21 d after treatm. 3: Imidacloprid 0.01 % a.s.; for Efficacy (% Abbott) 4 d after treatm. 2: Imidacloprid (100 SL) 0.01 % a.s., three applications
Experimental: Plots 10 m^2 in size which are planted with aubergines cv. “Dumaguete Long Purple” are treated, in three replications, against Thrips palmi. The application is effected with a knapsack sprayer which is operated with pressurized air. Here, the active substance Example (I-4) (240 SC), in a tank mix together with 0.2% a.s. rapeseed oil methyl ester […] and the commercial standard Imidacloprid (100 SL), is tested at the specified application rates. The water application rate is 400 l/ha. Three applications are carried out at intervals of 8 and 7 days, respectively.
The test is evaluated in each case 4 days after treatment 2 and 7, 14 and 21 days after treatment 3 by scoring the destruction of the nymphs on the leaves.

Thrips palmi [2] = experiment: Example 9: cucumbers against Thrips palmi; settings: for Efficacy (% Abbott) 3 d: 3 d after treatment 1, nymphs on leaves, Imidacloprid (100 SL) 100, (I-4) (240 SC + 0.2% rapeseed oil methyl ester) 72 g a.s./ha, two applications, interval 8 days; for Efficacy (% Abbott) 8 d: 8 d after treatment 1, Imidacloprid 100, (I-4) 72 g a.s./ha; for Efficacy (% Abbott) 11 d: 11 d after treatment 1, Imidacloprid 100, (I-4) 72 g a.s./ha; for Efficacy (% Abbott) 15 d: 15 d after treatment 1, Imidacloprid 100, (I-4) 72 g a.s./ha
Experimental: Plots approximately 10 m^2 in size which are planted with cucumbers are treated, in three replications, against Thrips palmi. The application is carried out with a knapsack sprayer which is operated with pressurized air. Here, the active substance Example (I-4) (240 SC), in a tank mix with 0.2% a.s. rapeseed oil methyl ester (500 EW) and the commercial standard Imidacloprid (100 SL), is applied at the specified application rates. The application is carried out with a water application rate of […]. Two applications are carried out at an interval of 8 days.
The test is evaluated 3, 8, 11 and 15 days after treatment 1 by scoring the destruction rate of the animals (nymphs) on the leaves.

Phyllocnistis citrella = experiment: Example 27: orange trees against Phyllocnistis citrella; settings: larvae on shoots; for Efficacy (% Abbott) 7 d: 7 d after treatment, Imidacloprid (192 SC) 140, (I-4) (150 OD) 132 g a.s./ha; for Efficacy (% Abbott) 14 d: 14 d after treatment, Imidacloprid 140, (I-4) 132 g a.s./ha
Experimental: Small orange trees on plots approximately 30 m^2 in size are treated, in four replications, against Phyllocnistis citrella. The application is carried out with a motor-operated knapsack sprayer. Here, the active substance Example (I-4) (150 OD) is tested against the commercial standard Imidacloprid (192 SC) at the specified rates. The water application rate is 935 l/ha.
The test is evaluated 7 and 14 days after the treatment by scoring the destruction rates of the larvae on the shoots in percent.

Lygus spinolai = experiment: Example 1A: field test on tea plants against Lygus spinolai; settings: nymphs on shoots, Imidacloprid (10 WP) 0.005 % a.s., (I-4) (150 OD) 0.01 % a.s.; for Efficacy (% Abbott) 15 d: 15 d after treatment; for Efficacy (% Abbott) 29 d: 29 d after treatment
Experimental: Plots approximately 4 m^2 in size which are planted with tea plants c.v. “Yabukita” are treated, in 3 replications, against Lygus spinolai. Here, the active substance Example (I-4) (150 OD) is tested at the specified application rate against the commercial standard Imidacloprid (10 WP) at the specified application rate. The application is effected with an engine-driven knapsack sprayer. Here, the treatment is carried out with a water application rate of 10 000 l/ha.
The test is evaluated 15 and 29 days after the treatment by determining the destruction of the nymphs on the shoots.

[3] = system: olive fruit fly (Dacus oleae); experiment: Example 22B: laboratory experiment, olives against olive fruit fly; settings: olives treated three days after oviposition; Imidacloprid (200 SL) 0.01 %, (I-4) (100 OD) 0.02 %, Fenthion (500 EC) 0.05 %; untreated 84.4
Experimental: In a laboratory experiment, 40 olives are treated, in four replications, against the olive fruit fly (Dacus oleae) three days after oviposition. Here, the active substance (I-4) (100 OD) and the commercial standards Fenthion (500 EC) and Imidacloprid (200 SL) are tested at the specified application rates.
The test is evaluated 14 days after oviposition by counting the number of feeding tunnels (larval development completed), while the absence of such feeding tunnels indicates the efficacy against the larvae.

Scirtothrips dorsalis = experiment: Example 10: tea plants against Scirtothrips dorsalis; settings: 7 d after treatment, nymphs, Ethiprole (SC10) 0.005, (I-4) (100 OD) 0.01, Imidacloprid (50 WG) 0.005 % a.s.
Experimental: Plots approx. 5 m^2 in size which are planted with tea plants cv. “Yabukita” which are approximately 18 years old are treated, in three replications, against Scirtothrips dorsalis. Here, the active substance Example (I-4) (100 OD) is tested, at the specified application rates, against the commercial standards Ethiprole (SC10 flowable) and Imidacloprid (50 WG). The application is carried out with a sprayer which is operated with pressurized air. The water application rate is 4500 l/ha. The test is evaluated 7 days after the treatment by scoring the destruction rate of the nymphs and the plants.

SMILES | Efficacy (% H + T) 3 d (Empoasca biguttula) | Efficacy (% H + T) 7 d (Empoasca biguttula) | Efficacy (% H + T) 14 d (Empoasca biguttula) | Efficacy (% H + T) 21 d (Empoasca biguttula) | Efficacy (% Abbott) 7 d after treatm. 3 (Thrips palmi [1]) | Efficacy (% Abbott) 14 d after treatm. 3 (Thrips palmi [1]) | Efficacy (% Abbott) 21 d after treatm. 3 (Thrips palmi [1]) | Efficacy (% Abbott) 4 d after treatm. 2 (Thrips palmi [1]) | Efficacy (% Abbott) 3 d (Thrips palmi [2]) | Efficacy (% Abbott) 8 d (Thrips palmi [2]) | Efficacy (% Abbott) 11 d (Thrips palmi [2]) | Efficacy (% Abbott) 15 d (Thrips palmi [2]) | Efficacy (% Abbott) 7 d (Phyllocnistis citrella) | Efficacy (% Abbott) 14 d (Phyllocnistis citrella) | Efficacy (% Abbott) 15 d (Lygus spinolai) | Efficacy (% Abbott) 29 d (Lygus spinolai) | Number of feeding tunnels (%) 14 days after oviposition [3] | Efficacy (% Abbott) 7 d (Scirtothrips dorsalis)
CCOC(=O)OC1=C(c2cc(C)ccc2C)C(=O)N[C@]12CC[C@@H](OC)CC2 [Example (I-4)] | 92.1 % H + T | 92.9 % H + T | 84.4 % H + T | 72.6 % H + T | 75.0 % Abbott | 82.8 % Abbott | 90.6 % Abbott | 82.9 % Abbott | 64.5 % Abbott | 91.0 % Abbott | 80.4 % Abbott | 70.1 % Abbott | 97.9 % Abbott | 68.2 % Abbott | 92.9 % Abbott | 100 % Abbott | 3.1% | 100 % Abbott
O=[N+]([O-])NC1=NCCN1Cc1ccc(Cl)nc1 [Imidacloprid] | 97.3 % H + T | 99.6 % H + T | 95.6 % H + T | 72.5 % H + T | 75.0 % Abbott | 62.1 % Abbott | 53.1 % Abbott | 82.9. % Abbott | 85.3 % Abbott | 85.5 % Abbott | 91.7 % Abbott | 77.1 % Abbott | 91.7 % Abbott | 52.3 % Abbott | 35.7 % Abbott | 48.1 % Abbott | 11.9% | 44.4 % Abbott
